± gives the expanded uncertainty stated by the source.

Normal melting temperature data for 1 compound are collected here from the NIST ThermoML archive (doi:10.1021/je800600q).

The conditions of the data set: Crystal; DTA.

In the case of `CCc1occc(=O)c1O` [2-ethyl-3-hydroxy-4H-pyran-4-one], the Normal melting temperature stood at 91.02 ± 0.5 °C.
